Experimental findings from patent US10702492B2, “PPARα activator, pharmaceutical composition, food and drink, food additive, supplement and method of manufacturing the same” (Marukome Co., Ltd., priority 2015, dated 2020) are described below.

Entries after “also recorded” stand apart in the source; their conditions may differ.

For one test, the target named is T1, human PPARα (Homo sapiens, UniProt Q07869).
T1 construct: expressed in transfected cells; host or cells: CV-1 cells
T1 sequence (Q07869 239-466 limits assumed): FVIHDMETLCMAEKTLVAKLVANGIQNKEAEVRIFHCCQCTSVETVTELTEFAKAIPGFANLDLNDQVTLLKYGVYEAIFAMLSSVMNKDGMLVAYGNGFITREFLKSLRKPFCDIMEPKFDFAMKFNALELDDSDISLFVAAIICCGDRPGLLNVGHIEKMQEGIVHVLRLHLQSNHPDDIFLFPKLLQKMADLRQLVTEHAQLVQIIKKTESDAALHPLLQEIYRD
Briefly: PPARα luciferase assay. It counts as cell-based. As to conditions: CV-1 cells, 1.3 μM, 24 hours after the addition; FIG. 6 and FIG. 7. The procedure: The PPARα activity of koji extract 1 was evaluated by PPARα luciferase assay. The assay was performed by a method as previously described (T. Goto et al., Biochemical and Biophysical Research Communications 337(2005) 440-445).
Specifically, CV-1 cells that were transfected with p4×UASg-tk-luc (reporter plasmid), pM-hPPARα (expression vector for DNA-binding domain of GAL4 and ligand-binding domain of human PPARα for chimeric protein), pRL-CMV (internal control for normalizing transfection efficiency) and Lipofectamine™ Reagent. The cells were cultured in a DMEM culture medium containing 10% FBS and penicillin/streptomycin (10 mg/mL).
The CV-1 cells were transfected with the vector with Lipofectamine and cultured for 24 hours. Then, the medium was replaced with a medium added with 0.1 mg/mL, 0.5 mg/mL or 5 mg/mL of the concentrated koji extract 1 with 70% ethanol (dilution rate: 50 times), respectively, and the CV-1 cells were further cultured for 24 hours. The measurement of luciferase activity was performed by using Dual-Luciferase(R) Reporter Assay System (Promega) and a luminometer (MicroLumat Plus, Berthold Japan Co., Ltd.) according to the protocols of the reagent and the luminometer.
As a positive control, a medium added with […] of a known PPARα agonist, GW-7647 (2-[4-[2-[1-(4-cyclohexylbutyl)-3-cyclohexylureido]ethyl]phenylthio]isobutyric acid) was used. […]

Test [1] deals with mouse primary-cultured hepatocytes. Kind of test: TG accumulation in mouse primary-cultured hepatocytes (TG kit). It counts as cell-based. As to conditions: 24 hours, 500 μM oleic acid medium, vs. negative control (CT+), FIG. 8. On the procedure: The effect on the accumulation of triglyceride ([…]) of a koji extract was evaluated by using mouse primary-cultured hepatocytes and koji extract 1 used in Example 1.
Primary-cultured hepatocytes were prepared from hepatocytes separated from C57BL/6J mice (6 week old, male), and were seeded in a 12-well plate (2×10^5 cells/ml). After confirming the attachment of the cells to the plate at 3-5 hours after the seeding, the medium was replaced with a serum-free medium (low-glucose DMEM, 1% P/S, 500 μM oleic acid, 20 μg/mL BSA). At this time, koji extract 1 was added in an amount of 0.1 mg/mL or 1 mg/mL. As a positive control, a medium added with GW-7647 ([…]) was used.
At 24 hours after the addition, the amount of TG accumulation of the primary-cultured hepatocytes was measured with a TG kit (Wako). […] The error bar refers to SE (n=4), * is p<0.05, ** is p<0.01 (vs. control).
The effect on triglyceride (TG) accumulation of 9-HODE:10E,12E was evaluated by using mouse primary-cultured hepatocytes.
Primary-cultured hepatocytes were prepared from hepatocytes separated from C57BL/6J mice (6 week old, male), and seeded in a 12-well plate (2×10^5 cells/ml). […]
At 24 hours after the addition, the accumulation amount of TG was measured by using a TG kit (Wako). […]

Consider `CCCCC/C=C/C=C/C(O)CCCCCCCC(=O)O` (stereo not drawn) [9-HODE:10E,12E, 9-hydroxy-10,12-octadecadienoic acid], for which the PPARα activity entry at human PPARα was “remarkably high; also recorded: relatively high”. For the same compound, the “accumulation amount of TG” value in test [1] (3 μM) and in test [1] (10 μM) was “significant decrease” in each case.
